Data from PubChem BioAssay (NCI).
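Tested at 5 concentrations; 48 h exposure; 96-well plates; endpoints linearly interpolated, else capped at highest concentration. The concentration for 50% growth inhibition is given as GI50. The concentration for full growth arrest is given as TGI.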

Each compound was assayed on OVCAR-4 ovarian (assay: NCI-60 cell line screen, 48 h).

SMILES | GI50 | TGI
O=C1c2ccn(CCCCNC(CO)(CO)CO)c2C(=O)c2c1c(O)c1ccccc1c2O | 2.35 µM | > 22.2 µM
COc1ccc(-c2cc(-c3cccn3C)c(C#N)c(N)n2)cc1OC | 40.7 µM | > 100 µM
CN1CCc2c(Sc3ccc(C(=O)NO)cc3)c3ccccc3n2C1 | 1.92 µM | 8.6 µM
COc1ccc(CNc2c3ccccc3nc3ccccc23)cc1OC | 2.39 µM | 7.99 µM
CN(C)c1ccc2nc3ccc(=O)cc-3sc2c1 | 1.41 µM | 36.5 µM
CC(=O)c1c(CBr)n([O-])c2ccccc2[n+]1=O | 3.78 µM | 13.2 µM
O=C(Nc1ccc(Cl)cc1F)c1cc(Br)ccc1O | 0.732 µM | > 100 µM
COc1ccc(-n2cc(-c3ccc(Cl)c(Cl)c3)nc2SCc2cccc(C#N)c2)cc1 | 11.9 µM | > 100 µM
Nc1c(C(=O)N/N=C/c2ccc(-c3ccc(Cl)cc3)o2)cnn1-c1ccnc2c(C(F)(F)F)cccc12 | 72.5 µM | > 100 µM
Fc1ccc(Nc2cc(-n3nnc4ccccc43)nc3ccccc23)cc1 | 22.4 µM | > 80.4 µM

Each compound was assayed on RPMI-8226 leukemia (assay: NCI-60 cell line screen, 48 h).

SMILES | GI50 | TGI
O=C1c2ccn(CCCCNC(CO)(CO)CO)c2C(=O)c2c1c(O)c1ccccc1c2O | 1.21 µM | 11 µM
COc1ccc(-c2cc(-c3cccn3C)c(C#N)c(N)n2)cc1OC | 38.5 µM | > 100 µM
CN1CCc2c(Sc3ccc(C(=O)NO)cc3)c3ccccc3n2C1 | 1.36 µM | 11.1 µM
COc1ccc(CNc2c3ccccc3nc3ccccc23)cc1OC | 2.2 µM | 5.59 µM
CN(C)c1ccc2nc3ccc(=O)cc-3sc2c1 | 0.199 µM | 53 µM
CC(=O)c1c(CBr)n([O-])c2ccccc2[n+]1=O | 4.9 µM | 30.5 µM
O=C(Nc1ccc(Cl)cc1F)c1cc(Br)ccc1O | 0.43 µM | 2.19 µM
COc1ccc(-n2cc(-c3ccc(Cl)c(Cl)c3)nc2SCc2cccc(C#N)c2)cc1 | > 100 µM | > 100 µM
Nc1c(C(=O)N/N=C/c2ccc(-c3ccc(Cl)cc3)o2)cnn1-c1ccnc2c(C(F)(F)F)cccc12 | 0.496 µM | > 100 µM
Fc1ccc(Nc2cc(-n3nnc4ccccc43)nc3ccccc23)cc1 | 19.3 µM | > 100 µM

These compounds were tested on U251 CNS (assay: NCI-60 cell line screen, 48 h).

SMILES | GI50 | TGI
O=C1c2ccn(CCCCNC(CO)(CO)CO)c2C(=O)c2c1c(O)c1ccccc1c2O | 1.95 µM | 4.67 µM
COc1ccc(-c2cc(-c3cccn3C)c(C#N)c(N)n2)cc1OC | > 100 µM | > 100 µM
CN1CCc2c(Sc3ccc(C(=O)NO)cc3)c3ccccc3n2C1 | 1.6 µM | 3.29 µM
COc1ccc(CNc2c3ccccc3nc3ccccc23)cc1OC | 2.98 µM | 13.6 µM
CN(C)c1ccc2nc3ccc(=O)cc-3sc2c1 | 0.72 µM | 32.2 µM
CC(=O)c1c(CBr)n([O-])c2ccccc2[n+]1=O | 16.2 µM | 29.9 µM
O=C(Nc1ccc(Cl)cc1F)c1cc(Br)ccc1O | 0.913 µM | > 52.4 µM
COc1ccc(-n2cc(-c3ccc(Cl)c(Cl)c3)nc2SCc2cccc(C#N)c2)cc1 | 26.8 µM | > 100 µM
Nc1c(C(=O)N/N=C/c2ccc(-c3ccc(Cl)cc3)o2)cnn1-c1ccnc2c(C(F)(F)F)cccc12 | > 100 µM | > 100 µM
Fc1ccc(Nc2cc(-n3nnc4ccccc43)nc3ccccc23)cc1 | 27.6 µM | > 76.1 µM

What follows are compounds tested on NCI-H522 lung (assay: NCI-60 cell line screen, 48 h).

SMILES | GI50 | TGI
O=C1c2ccn(CCCCNC(CO)(CO)CO)c2C(=O)c2c1c(O)c1ccccc1c2O | 4.38 µM | > 100 µM
COc1ccc(-c2cc(-c3cccn3C)c(C#N)c(N)n2)cc1OC | 40.4 µM | > 100 µM
CN1CCc2c(Sc3ccc(C(=O)NO)cc3)c3ccccc3n2C1 | 1.14 µM | 2.62 µM
COc1ccc(CNc2c3ccccc3nc3ccccc23)cc1OC | 1.55 µM | 4.15 µM
CN(C)c1ccc2nc3ccc(=O)cc-3sc2c1 | 0.835 µM | 7.85 µM
CC(=O)c1c(CBr)n([O-])c2ccccc2[n+]1=O | 2.93 µM | 8.91 µM
O=C(Nc1ccc(Cl)cc1F)c1cc(Br)ccc1O | 0.481 µM | 9.23 µM
COc1ccc(-n2cc(-c3ccc(Cl)c(Cl)c3)nc2SCc2cccc(C#N)c2)cc1 | 13.6 µM | > 100 µM
Nc1c(C(=O)N/N=C/c2ccc(-c3ccc(Cl)cc3)o2)cnn1-c1ccnc2c(C(F)(F)F)cccc12 | > 100 µM | > 100 µM
Fc1ccc(Nc2cc(-n3nnc4ccccc43)nc3ccccc23)cc1 | 66.3 µM | > 100 µM

These compounds were tested on SK-MEL-5 melanoma (assay: NCI-60 cell line screen, 48 h).

SMILES | GI50 | TGI
O=C1c2ccn(CCCCNC(CO)(CO)CO)c2C(=O)c2c1c(O)c1ccccc1c2O | 5.21 µM | 53.1 µM
COc1ccc(-c2cc(-c3cccn3C)c(C#N)c(N)n2)cc1OC | > 100 µM | > 100 µM
CN1CCc2c(Sc3ccc(C(=O)NO)cc3)c3ccccc3n2C1 | 2.39 µM | 6.67 µM
COc1ccc(CNc2c3ccccc3nc3ccccc23)cc1OC | 1.87 µM | 3.64 µM
CN(C)c1ccc2nc3ccc(=O)cc-3sc2c1 | 0.173 µM | 0.495 µM
CC(=O)c1c(CBr)n([O-])c2ccccc2[n+]1=O | 10.5 µM | 22.6 µM
O=C(Nc1ccc(Cl)cc1F)c1cc(Br)ccc1O | 0.3 µM | 1.07 µM
COc1ccc(-n2cc(-c3ccc(Cl)c(Cl)c3)nc2SCc2cccc(C#N)c2)cc1 | 20.2 µM | > 100 µM
Nc1c(C(=O)N/N=C/c2ccc(-c3ccc(Cl)cc3)o2)cnn1-c1ccnc2c(C(F)(F)F)cccc12 | 49.1 µM | > 100 µM
Fc1ccc(Nc2cc(-n3nnc4ccccc43)nc3ccccc23)cc1 | 32.2 µM | > 100 µM
